In experiment [1] the test system is hippocampal and cortical neurons carrying Mfn2 T105M fl/st. Put plainly: Hippocampal and cortical neurons with induced Mfn2 T105M. Type of experiment: cell-based, mouse. The settings on record: Mfn2 T105M induced by adeno-Cre; 1 μM for 24 hours. The protocol: Finally, to test the efficacy of fusion promotion by conformational manipulation in a model of a naturally-occurring human CMT2A mutation, hippocampal and cortical neurons were cultured from mouse pups carrying the conditional Mfn2 T105M fl/st expression allele.
Hippocampal and cortical neurons were prepared from individual P0-P1 mouse pups using a modification of methods described for rat neuronal culture (Mennerick et al., 1995, J Neurophysiol, 73:320-332). Mouse pups were genotyped after the fact to determine presence or absence of the MFN2*T105M transgene; neurons derived from mice lacking the transgene were designated as normal controls. […] Immunoblot of Mfn2 expression in T105M fl/st cortical neurons 72 h after adeno-Cre or adeno-β-gal (Ctrl) is shown in FIG. 16B with quantitative data to the right (n=4). […]
Merged live confocal images of cultured neurons without (no Cre) and with (+Cre) Mfn2 T105M induction, and in Mfn2 T105M-induced neurons 24 h after addition of 1 μM TAT-367-384Gly are shown in FIG. 16C. […] Quantitative data are provided in FIG. 16E; each point is result from one of 3 independently-established Mfn2 T105M neuronal cultures, each with 3 biological replicates of ˜20 neurons. *=P<0.01 vs no Cre; #=P<0.01 vs T105M+Cre.

Experiment [2] concerns cultured rat motor neurons infected with adeno-Mfn2 K109A. Description: Motor neurons infected with adeno-Mfn2 K109A. Type of experiment: cell-based. The settings on record: 1 μM for 24 hours vs TAT control. The protocol: The efficacy of TAT-367-384Gly to correct mitochondrial pathology induced by a GTPase-defective Mfn2 mutant was examined in the CMT2A-relevant cell type, motor neurons. Motor neurons were isolated from E17 Sprague-Dawley rats and cultured as described in Wang et al., 2013, Hum Mol Genet 22:4706-4719. After 10 days in culture, neurons were infected twice, 8 hours apart, with 50 MOI of adenoviral WT-Mfn2 or K109A Mfn2 and treated with 1 μM TAT-367-384 Gly or control TAT peptide for 24 hours. Mitochondria of formalin-fixed nerons were labeled with anti-TOM20 (Santa Cruz Biotechnology). Neurons were stained with Hoechst 33342. Laser confocal imaging using a 63× oil objective was used to identify isolated mitochondria for determination of aspect ratio.
Representative anti-TOM20/Hoechst images of formalin-fixed cultured neurons infected with adeno-Mfn2K109A (FIG. 15A) or adeno-WT Mfn2 (FIG. 15B) and treated for 24 h with 1 μM TAT control (Ctrl) or TAT-367-384Gly minipeptide. Scale bars are 10 microns. N=20-23 per treatment group; *=P<0.05 vs Ctrl (Student's t-test).

The test system of experiment [3] is mice subjected to cerebral ischemia. Description: Temporary middle cerebral artery (MCA) occlusion followed by reperfusion. In kind it is in vivo. The protocol: Studies were done to study the effects of TetherX-1 (SEQ ID NO:24) administration on cerebral tissue damage in mice in which ischemia was induced. In this blinded and placebo-controlled studies, 40 mice were subjected to temporary (40 minutes) middle cerebral artery (MCA) occlusion followed by reperfusion for 24 hours. Brains were removed and analyzed for direct and indirect infarct area and volume. […] Moreover, TetherX-1 administration reduced cerebral deficit (FIG. 20) and cerebral swelling (FIG. 21).

[4] abbreviates: 3 mg/kg intravenously 1 hour before ischemia and immediately prior to reperfusion, vs vehicle.
[5] abbreviates: 3 mg/kg intravenously, vs vehicle.

Ends that are not written are not given here.

Consider “QIAEAVRGIMDSLHMAARGGYGRKKRRQRRR [TAT-367-384Gly]”, for which the “neuronal mitochondrial dysmorphology with fragmentation, partial depolarization and clumping” value in experiment [1] is given as “largely reversed these abnormalities”. Besides, the “mitochondrial fragmentation (aspect ratio)” value in experiment [2] was “fully normalized”.
Consider “QDRLKFIDKQGELLAQDYKLRGGYGRKKRRQRRR [TAT-398-418Gly]”, for which the direct infarct area result in experiment [3] (3 mg/kg intravenously 1 hour before ischemia and immediately prior to reperfusion, 40 minutes MCA occlusion, reperfusion 24 hours, vs vehicle (water)) is reported as “decrease”. Besides, in experiment [3] (setting [4]), the direct infarct volume result is recorded as “decrease”, the indirect infarct area entry is given as “decrease” and the indirect infarct volume result was “decrease”. Further, in experiment [3] (setting [5]), the cerebral deficit result was “reduced” and the cerebral swelling result was “reduced”.

The record behind these values is patent US10578610B2, “Peptide regulators of mitochondrial fusion and methods of use” (priority 2016, dated 2020).
